The results in this text go back to US11332485B2, “Penicillin-binding protein inhibitors” (priority 2017, dated 2022).

Some results are limits rather than exact numbers.

Assay [1] deals with S. aureus ATCC 29213. Put plainly: Broth microdilution MIC assay. In kind it is cell-based. The following applies: Staphylococcus aureus, ATCC29213; broth microdilution, 16-20 hours at 37° C.; read-out: S. aureus 29213 MIC. Here is the method: (§1) To determine the ability of test compounds to potentiate the inhibition of the growth of bacterial strains, classic cell based broth microdilution MIC assays were employed. MIC assays are performed according to CLSI methods except where otherwise noted (CLSI, 2011 and CLSI, 2009). The reference strain S. aureus ATCC 29213 and the hyper-permeable E. coli 901C were used to determine the ability of the PBP compounds to inhibit bacterial growth. Briefly, cryo-preserved bacterial cultures of clinical strains are streaked for isolation on appropriate agar medium, in this case Mueller Hinton II agar. Following incubation to allow formation of colonies these plates are sealed with parafilm and stored refrigerated for up to two weeks. For preparation of assay inocula and to ensure low variability, at least 5 colonies are picked from the agar plates with an inoculating loop and aseptically transferred to a culture tube containing 3 mL of Mueller-Hinton Broth (supplemented with divalent cations to required levels based on Manufacturers' certification). The broth culture is grown for 3-5 hours at 37° C. with shaking at 200 rpm. Meanwhile, 2-fold serial dilutions of test compounds are conducted in a 96 well plate with a final volume of 75 μL per well at 2-fold the final desired concentration. After the dilution plates are set up the growing cultures are then diluted in a cuvette containing MH II broth and the optical density is measured at 600 nm. Inocula are diluted such that 75 μL of this culture in Mueller-Hinton Broth results in a starting bacterial concentration of 5×10^5 CFU/mL when added to the dilution plates. The plates are incubated 16-20 hours at 37° C. The MIC is read visually as the lowest concentration well with no bacterial growth.

For assay [2], the system named is hyper-permeable E. coli 901C. Put plainly: Broth microdilution MIC assay. In kind it is cell-based. Particulars: Escherichia coli, read-out: E. coli 901C MIC. Here is the method:
as §1
(In general: In broth dilution the organism is exposed to a series of concentrations in liquid medium.)

For assay [3], the system named is E. coli DH5α/pLBII. The assay is described as follows: Broth microdilution MIC assay, empty vector control strain. Type of assay: cell-based. The following applies: Escherichia coli, read-out: E. coli DH5α/pLBII Microbiological Activity (MIC). Here is the method: as §1
(§2) To determine if test compounds were affected by CTX-M15, the most abundant extended spectrum β-lactamase in clinical settings worldwide, the inhibition of the growth of an engineered strain of Escherichia coli harboring CTX-M15 was tested. This strain was constructed by cloning the gene encoding CTX-M15 into the NdeI and BamHI restriction endonuclease sites of plasmid pLBII, placing the gene(s) under the control of the Lac promoter. The constructed expression plasmid for CTX-M15 was used to transform competent E. coli DH5a cells to make the engineered strain, including an empty pLBII vector control strain. The classic cell based broth microdilution MIC assay was employed as described above with the addition of control antibiotics, known to be degraded by β-lactamases (Ceftazidime, piperacillin and piperacillin+tazobactam).

Assay [4] relates to E. coli DH5α/pLBII-CTX-M15. The assay is described as follows: Broth microdilution MIC assay, engineered strain producing CTX-M15. In kind it is cell-based, Escherichia coli. The following applies: for MIC: Escherichia coli, read-out: E. coli DH5α/pLBII-CTX-M15 Microbiological Activity (MIC); for MIC in the CTX-M15 producer compared with the parent strain with the empty pLBII plasmid: comparison in words. Here is the method: as §1, §2

Regarding `Nc1nc([C@@H](N)C(=O)N[C@H]2Cc3cccc(C(=O)O)c3OB2O)cs1` [Example 8, (R)-3-((R)-2-amino-2-(2-aminothiazol-4-yl)acetamido)-2-hydroxy-3,4-dihydro-2H-benzo[e][1,2]oxaborinine-8-carboxylic acid], the MIC is more than 128 µg/mL in assay [1], more than 128 µg/mL in assay [2], more than 512 µg/mL in assay [3] and more than 512 µg/mL in assay [4].
As to `N[C@H](Cc1ccccc1)C(=O)N[C@H]1Cc2cccc(C(=O)O)c2OB1O` [Example 1, (R)-3-((R)-2-amino-3-phenylpropanamido)-2-hydroxy-3,4-dihydro-2H-benzo[e][1,2]oxaborinine-8-carboxylic acid], the MIC in assay [1] is more than 128 µg/mL; in assay [2], more than 128 µg/mL; in assay [3], more than 512 µg/mL; in assay [4], more than 512 µg/mL.
As to `COc1ccc([C@H](N)C(=O)N[C@H]2Cc3cccc(C(=O)O)c3OB2O)cc1` [Example 5, (R)-3-((S)-2-amino-2-(4-methoxyphenyl)acetamido)-2-hydroxy-3,4-dihydro-2H-benzo[e][1,2]oxaborinine-8-carboxylic acid], the MIC in assay [1] is 64 to 128 µg/mL; in assay [2], more than 128 µg/mL; in assay [3] it was more than 512 µg/mL; in assay [4], more than 512 µg/mL.
Consider `Nc1nc([C@H](N)C(=O)N[C@H]2Cc3cccc(C(=O)O)c3OB2O)cs1` [Example 9, (R)-3-((S)-2-amino-2-(2-aminothiazol-4-yl)acetamido)-2-hydroxy-3,4-dihydro-2H-benzo[e][1,2]oxaborinine-8-carboxylic acid], for which the MIC in assay [1] is more than 128 µg/mL; in assay [2] it was more than 128 µg/mL; in assay [3], 128 to 256 µg/mL; in assay [4] it was 128 to 256 µg/mL.
As to `CCN1CCN(C(=O)N[C@@H](C)C(=O)N[C@H]2Cc3cccc(C(=O)O)c3OB2O)C(=O)C1=O` [Example 31, (R)-3-((S)-2-(4-Ethyl-2,3-dioxopiperazine-1-carboxamido)propanamido)-2-hydroxy-3,4-dihydro-2H-benzo[e][1,2]oxaborinine-8-carboxylic acid], the MIC is more than 128 µg/mL in assay [1], more than 128 µg/mL in assay [2], more than 512 µg/mL in assay [3] and more than 512 µg/mL in assay [4].
In the case of `Nc1nc(C(NS(=O)(=O)c2cccnc2)C(=O)N[C@H]2Cc3cccc(C(=O)O)c3OB2O)cs1` (stereo partly drawn) [Example 27, (3R)-3-(2-(2-aminothiazol-4-yl)-2-(pyridine-3-sulfonamido)acetamido)-2-hydroxy-3,4-dihydro-2H-benzo[e][1,2]oxaborinine-8-carboxylic acid], the MIC in assay [1] is more than 128 µg/mL; in assay [2], less than 64 µg/mL; in assay [3], 128 to 256 µg/mL; in assay [4], 128 to 256 µg/mL.
As for `COc1cc(C(=O)NC(C(=O)N[C@H]2Cc3cccc(C(=O)O)c3OB2O)c2csc(N)n2)ccn1` (stereo partly drawn) [Example 41, (3R)-3-(2-(2-aminothiazol-4-yl)-2-(2-methoxyisonicotinamido)acetamido)-2-hydroxy-3,4-dihydro-2H-benzo[e][1,2]oxaborinine-8-carboxylic acid], the MIC is 64 to 128 µg/mL in assay [1], less than 64 µg/mL in assay [2], more than 512 µg/mL in assay [3] and more than 512 µg/mL in assay [4].
For `Nc1nc(C(NC(=O)c2nccs2)C(=O)N[C@H]2Cc3cccc(C(=O)O)c3OB2O)cs1` (stereo partly drawn) [Example 15, (3R)-3-(2-(2-aminothiazol-4-yl)-2-(thiazole-2-carboxamido)acetamido)-2-hydroxy-3,4-dihydro-2H-benzo[e][1,2]oxaborinine-8-carboxylic acid], the MIC in assay [1] is less than 64 µg/mL; in assay [2] it was less than 64 µg/mL; in assay [3], 128 to 256 µg/mL; in assay [4] it was 128 to 256 µg/mL.
With `Nc1nc(C(NC(=O)Nc2cccnc2)C(=O)N[C@H]2Cc3cccc(C(=O)O)c3OB2O)cs1` (stereo partly drawn) [Example 30, (3R)-3-(2-(2-aminothiazol-4-yl)-2-(3-(pyridin-3-yl)ureido)acetamido)-2-hydroxy-3,4-dihydro-2H-benzo[e][1,2]oxaborinine-8-carboxylic acid], the MIC lay within 64 to 128 µg/mL in assay [1], 64 to 128 µg/mL in assay [2], 128 to 256 µg/mL in assay [3] and 128 to 256 µg/mL in assay [4].
`CCCN1CCN(C(=O)NC(C(=O)N[C@H]2Cc3cccc(C(=O)O)c3OB2O)c2csc(N)n2)C(=O)C1=O` (stereo partly drawn) [Example 51, (3R)-3-(2-(2-aminothiazol-4-yl)-2-(2,3-dioxo-4-propylpiperazine-1-carboxamido)acetamido)-2-hydroxy-3,4-dihydro-2H-benzo[e][1,2]oxaborinine-8-carboxylic acid]: the MIC was 64 to 128 µg/mL in assay [1], less than 64 µg/mL in assay [2], 8 to 16 µg/mL in assay [3] and 8 to 16 µg/mL in assay [4].
Regarding `CCN1CCN(C(=O)N[C@@H](C(=O)N[C@H]2Cc3cccc(C(=O)O)c3OB2O)[C@H](O)CO)C(=O)C1=O` [Example 74, (R)-3-((2R,3S)-2-(4-ethyl-2,3-dioxopiperazine-1-carboxamido)-3,4-dihydroxybutanamido)-2-hydroxy-3,4-dihydro-2H-benzo[e][1,2]oxaborinine-8-carboxylic acid], the MIC in assay [1] is more than 128 µg/mL; in assay [2], less than 64 µg/mL; in assay [3] it was 32 to 64 µg/mL; in assay [4] it was 32 to 64 µg/mL.
Turning to `CCN1CCN(C(=O)N[C@H](CO)C(=O)N[C@H]2Cc3cccc(C(=O)O)c3OB2O)C(=O)C1=O` [Example 35, (R)-3-((R)-2-(4-Ethyl-2,3-dioxopiperazine-1-carboxamido)-3-hydroxy-propanamido)-2-hydroxy-3,4-dihydro-2H-benzo[e][1,2]oxaborinine-8-carboxylic acid], the MIC in assay [1] is more than 128 µg/mL; in assay [2] it was less than 64 µg/mL; in assay [3] it was 32 to 64 µg/mL; in assay [4], 32 to 64 µg/mL.
For `CCN1CCN(C(=O)N[C@@H](C(=O)N[C@@H]2C(=O)N3[C@@H]2SC(C)(C)[C@@H]3C(=O)O)c2ccccc2)C(=O)C1=O` [piperacillin, reference compound], in assay [3], the MIC is less than 1 µg/mL. Besides, in assay [4], the MIC is 128 to 256 µg/mL and the “MIC in the CTX-M15 producer compared with the parent strain with the empty pLBII plasmid” value is listed as “weaker MICs”.
For `CC(C)(O/N=C(\C(=O)N[C@@H]1C(=O)N2C(C(=O)[O-])=C(C[n+]3ccccc3)CS[C@H]12)c1csc(N)n1)C(=O)O` [ceftazidime, reference compound] the same measures were less than 1 µg/mL, 8 to 16 µg/mL and “weaker MICs”.
On to `COC(=O)CCNC(=O)NC(C(=O)N[C@H]1Cc2cccc(C(=O)O)c2OB1O)c1csc(N)n1` (stereo partly drawn) [Example 88, (3R)-3-(2-(2-aminothiazol-4-yl)-2-(3-(3-methoxy-3-oxopropyl)ureido)acetamido)-2-hydroxy-3,4-dihydro-2H-benzo[e][1,2]oxaborinine-8-carboxylic acid], for which the figures for the MIC in assay [1], in assay [2] and in assay [4] were more than 128 µg/mL, less than 64 µg/mL and 128 to 256 µg/mL, respectively.
For `Nc1nc(C(NC(=O)NCCC(=O)O)C(=O)N[C@H]2Cc3cccc(C(=O)O)c3OB2O)cs1` (stereo partly drawn) [Example 87, (3R)-3-(2-(2-aminothiazol-4-yl)-2-(3-(2-carboxyethyl)ureido)acetamido)-2-hydroxy-3,4-dihydro-2H-benzo[e][1,2]oxaborinine-8-carboxylic acid] the same measures were more than 128 µg/mL, 64 to 128 µg/mL and 128 to 256 µg/mL.
